{"source": "paper PMC12388125", "about": "“Design, Synthesis, and Pharmacological Activity of the N-(4-(1H-1,2,4-Triazol-1-yl)phenyl)-substituted-amide Derivatives” (Molecules, 2025)", "key": {"MES-induced seizures": {"system": "MES-induced seizures", "assay": "animal or person", "format": "in vivo, Kunming mice", "conditions": "for minimal effective dose: Mus musculus, ip, doses 30, 100, 300 mg/kg, read-out: MES, dose at which at least one of three animals was protected; for ED50 (MES) / PI (TD50/ED50) MES: 0.5 h; for ED50 (MES): value (95% CI); for PI (TD50/ED50) MES: Kunming, mouse, in vivo", "method": "(§1) Pharmacological tests were performed using two experimental animal models, MES and scPTZ, which were divided into three dosage groups of 30, 100, and 300 mg/kg, and the anticonvulsant activity of the target compounds 6a–m and 9a–g, after 0.5 and 4 h of administration, respectively, were tested. Carbamazepine, which is effective in the MES model, was chosen as a positive control, and ethosuximide, which is effective in the scPTZ model, was chosen as a positive control. […]\nProtection against the spread of\nextension component of the seizure. […]"}, "[1]": {"system": "pentylenetetrazole-induced clonic seizures", "assay": "animal or person", "format": "in vivo, Kunming mice", "conditions": "for minimal effective dose: Mus musculus, sc, read-out: scPTZ, dose at which at least one of three animals was protected; for minimal effective dose / scPTZ, dose at which at least one of three animals was protected: doses 30, 100, 300 mg/kg; for ED50 (scPTZ) / PI (TD50/ED50) scPTZ: 0.5 h; for ED50 (scPTZ): value (95% CI); for PI (TD50/ED50) scPTZ: Kunming, mouse, in vivo", "method": "as §1\nThe test compound wa s\nAbsence of clonic spasms indicated a […]"}, "mice": {"system": "mice", "assay": "Rotarod (ROT) neurotoxicity test", "conditions": "for NT (neurotoxicity, ROT), dose at which at least one of three animals showed neurotoxicity: doses 100, 300 mg/kg; for TD50 (ROT): 0.5 h, value (95% CI)", "quoted_text": "The neurotoxicity of the target compounds was tested using the ROT experimental model, which was divided into two dose groups, 100 and 300 mg/kg, and tested after 0.5 and 4 h of administration, respectively.\nThe neurotoxicity of the target compounds was determined using the ROT experimental model.\nThe neurotoxicity of the compounds wa s measured in mice using the rotarod test. Mice\nwe r e trained to stay on an accelerating rotarod (diameter, 3.2 cm) rotating at 10 rpm. Trained\nanimals we r e injected with the test compounds (i.p.) and neurotoxicity wa s measured as the\ninability of the animal to maintain equilibrium on the rod for at least 1 min in each of the"}}, "note": "Read-outs that look alike come from different tables or passages of the source."}
{"molecule": "O=C(Nc1ccc(-n2cncn2)cc1)c1ccccc1", "note": "[Compound 6a, N-(4-(1H-1,2,4-triazol-1-yl)phenyl)benzamide]", "values": [{"measurement": "minimal effective dose", "setting": "MES-induced seizures; 0.5 h after administration", "result": 300, "unit": "mg/kg"}, {"measurement": "minimal effective dose", "setting": "MES-induced seizures; 4 h after administration", "result": 300, "unit": "mg/kg"}, {"measurement": "minimal effective dose", "setting": "[1]; 0.5 h after administration", "result": 100, "unit": "mg/kg"}, {"measurement": "minimal effective dose", "setting": "[1]; 4 h after administration", "result": 100, "unit": "mg/kg"}, {"measurement": "NT (neurotoxicity, ROT), dose at which at least one of three animals showed neurotoxicity", "setting": "mice; 0.5 h after administration", "result": ">300", "unit": "mg/kg"}, {"measurement": "NT (neurotoxicity, ROT), dose at which at least one of three animals showed neurotoxicity", "setting": "mice; 4 h after administration", "result": ">300", "unit": "mg/kg"}]}
{"molecule": "O=C(Nc1ccc(-n2cncn2)cc1)c1ccccc1Cl", "note": "[Compound 6b, N-(4-(1H-1,2,4-triazol-1-yl)phenyl)-2-chlorobenzamide]", "values": [{"measurement": "minimal effective dose", "setting": "MES-induced seizures; 0.5 h after administration", "result": 300, "unit": "mg/kg"}, {"measurement": "minimal effective dose", "setting": "MES-induced seizures; 4 h after administration", "result": 100, "unit": "mg/kg"}, {"measurement": "minimal effective dose", "setting": "[1]; 0.5 h after administration", "result": 100, "unit": "mg/kg"}, {"measurement": "minimal effective dose", "setting": "[1]; 4 h after administration", "result": 300, "unit": "mg/kg"}, {"measurement": "NT (neurotoxicity, ROT), dose at which at least one of three animals showed neurotoxicity", "setting": "mice; 0.5 h after administration", "result": ">300", "unit": "mg/kg"}, {"measurement": "NT (neurotoxicity, ROT), dose at which at least one of three animals showed neurotoxicity", "setting": "mice; 4 h after administration", "result": ">300", "unit": "mg/kg"}]}
{"molecule": "O=C(Nc1ccc(-n2cncn2)cc1)c1cccc(Cl)c1", "note": "[Compound 6c, N-(4-(1H-1,2,4-triazol-1-yl)phenyl)-3-chlorobenzamide]", "values": [{"measurement": "minimal effective dose", "setting": "MES-induced seizures; 0.5 h after administration", "result": 100, "unit": "mg/kg"}, {"measurement": "minimal effective dose", "setting": "MES-induced seizures; 4 h after administration", "result": 300, "unit": "mg/kg"}, {"measurement": "minimal effective dose", "setting": "[1]; 0.5 h after administration", "result": 100, "unit": "mg/kg"}, {"measurement": "minimal effective dose", "setting": "[1]; 4 h after administration", "result": 100, "unit": "mg/kg"}, {"measurement": "NT (neurotoxicity, ROT), dose at which at least one of three animals showed neurotoxicity", "setting": "mice; 0.5 h after administration", "result": ">300", "unit": "mg/kg"}, {"measurement": "NT (neurotoxicity, ROT), dose at which at least one of three animals showed neurotoxicity", "setting": "mice; 4 h after administration", "result": ">300", "unit": "mg/kg"}]}
{"molecule": "O=C(Nc1ccc(-n2cncn2)cc1)c1ccc(Cl)cc1", "note": "[Compound 6d, N-(4-(1H-1,2,4-triazol-1-yl)phenyl)-4-chlorobenzamide]", "values": [{"measurement": "minimal effective dose", "setting": "MES-induced seizures; 0.5 h after administration", "result": 300, "unit": "mg/kg"}, {"measurement": "minimal effective dose", "setting": "MES-induced seizures; 4 h after administration", "result": 300, "unit": "mg/kg"}, {"measurement": "scPTZ, dose at which at least one of three animals was protected", "setting": "[1]; 4 h after administration", "result": "inactive"}, {"measurement": "minimal effective dose", "setting": "[1]; 0.5 h after administration", "result": 300, "unit": "mg/kg"}, {"measurement": "minimal effective dose", "setting": "[1]; 4 h after administration", "result": "> 300", "unit": "mg/kg"}, {"measurement": "NT (neurotoxicity, ROT), dose at which at least one of three animals showed neurotoxicity", "setting": "mice; 0.5 h after administration", "result": ">300", "unit": "mg/kg"}, {"measurement": "NT (neurotoxicity, ROT), dose at which at least one of three animals showed neurotoxicity", "setting": "mice; 4 h after administration", "result": ">300", "unit": "mg/kg"}]}
{"molecule": "O=C(Nc1ccc(-n2cncn2)cc1)c1ccccc1F", "note": "[Compound 6e, N-(4-(1H-1,2,4-triazol-1-yl)phenyl)-2-fluorobenzamide]", "values": [{"measurement": "minimal effective dose", "setting": "MES-induced seizures; 0.5 h after administration", "result": 100, "unit": "mg/kg"}, {"measurement": "minimal effective dose", "setting": "MES-induced seizures; 4 h after administration", "result": 100, "unit": "mg/kg"}, {"measurement": "minimal effective dose", "setting": "[1]; 0.5 h after administration", "result": 100, "unit": "mg/kg"}, {"measurement": "minimal effective dose", "setting": "[1]; 4 h after administration", "result": 100, "unit": "mg/kg"}, {"measurement": "NT (neurotoxicity, ROT), dose at which at least one of three animals showed neurotoxicity", "setting": "mice; 0.5 h after administration", "result": ">300", "unit": "mg/kg"}, {"measurement": "NT (neurotoxicity, ROT), dose at which at least one of three animals showed neurotoxicity", "setting": "mice; 4 h after administration", "result": ">300", "unit": "mg/kg"}]}
{"molecule": "O=C(Nc1ccc(-n2cncn2)cc1)c1ccc(F)cc1", "note": "[Compound 6g, N-(4-(1H-1,2,4-triazol-1-yl)phenyl)-4-fluorobenzamide]", "values": [{"measurement": "ED50 (MES)", "setting": "MES-induced seizures", "result": 13.7, "unit": "mg/kg"}, {"measurement": "PI (TD50/ED50) MES", "setting": "MES-induced seizures", "result": 31.3}, {"measurement": "minimal effective dose", "setting": "MES-induced seizures; 0.5 h after administration", "result": 30, "unit": "mg/kg"}, {"measurement": "minimal effective dose", "setting": "MES-induced seizures; 4 h after administration", "result": 30, "unit": "mg/kg"}, {"measurement": "ED50 (scPTZ)", "setting": "[1]", "result": 31.5, "unit": "mg/kg"}, {"measurement": "PI (TD50/ED50) scPTZ", "setting": "[1]", "result": 13.6}, {"measurement": "minimal effective dose", "setting": "[1]; 0.5 h after administration", "result": 30, "unit": "mg/kg"}, {"measurement": "minimal effective dose", "setting": "[1]; 4 h after administration", "result": 100, "unit": "mg/kg"}, {"measurement": "TD50 (ROT)", "setting": "mice", "result": "429.1 (466.4–394.7) mg"}, {"measurement": "NT (neurotoxicity, ROT), dose at which at least one of three animals showed neurotoxicity", "setting": "mice; 0.5 h after administration", "result": ">300", "unit": "mg/kg"}, {"measurement": "NT (neurotoxicity, ROT), dose at which at least one of three animals showed neurotoxicity", "setting": "mice; 4 h after administration", "result": ">300", "unit": "mg/kg"}]}
{"molecule": "O=C(Nc1ccc(-n2cncn2)cc1)c1ccccc1C(F)(F)F", "note": "[Compound 6h, N-(4-(1H-1,2,4-triazol-1-yl)phenyl)-2-(trifluoromethyl)benzamide]", "values": [{"measurement": "minimal effective dose", "setting": "MES-induced seizures; 0.5 h after administration", "result": 100, "unit": "mg/kg"}, {"measurement": "minimal effective dose", "setting": "MES-induced seizures; 4 h after administration", "result": 300, "unit": "mg/kg"}, {"measurement": "scPTZ, dose at which at least one of three animals was protected", "setting": "[1]; 4 h after administration", "result": "inactive"}, {"measurement": "minimal effective dose", "setting": "[1]; 0.5 h after administration", "result": 300, "unit": "mg/kg"}, {"measurement": "minimal effective dose", "setting": "[1]; 4 h after administration", "result": "> 300", "unit": "mg/kg"}, {"measurement": "NT (neurotoxicity, ROT), dose at which at least one of three animals showed neurotoxicity", "setting": "mice; 0.5 h after administration", "result": ">300", "unit": "mg/kg"}, {"measurement": "NT (neurotoxicity, ROT), dose at which at least one of three animals showed neurotoxicity", "setting": "mice; 4 h after administration", "result": ">300", "unit": "mg/kg"}]}
{"molecule": "O=C(Nc1ccc(-n2cncn2)cc1)c1cccc(C(F)(F)F)c1", "note": "[Compound 6i, N-(4-(1H-1,2,4-triazol-1-yl)phenyl)-3-(trifluoromethyl)benzamide]", "values": [{"measurement": "ED50 (MES)", "setting": "MES-induced seizures", "result": 21.9, "unit": "mg/kg"}, {"measurement": "PI (TD50/ED50) MES", "setting": "MES-induced seizures", "result": 17.4}, {"measurement": "minimal effective dose", "setting": "MES-induced seizures; 0.5 h after administration", "result": 30, "unit": "mg/kg"}, {"measurement": "minimal effective dose", "setting": "MES-induced seizures; 4 h after administration", "result": 30, "unit": "mg/kg"}, {"measurement": "ED50 (scPTZ)", "setting": "[1]", "result": 22.8, "unit": "mg/kg"}, {"measurement": "PI (TD50/ED50) scPTZ", "setting": "[1]", "result": 16.7}, {"measurement": "minimal effective dose", "setting": "[1]; 0.5 h after administration", "result": 30, "unit": "mg/kg"}, {"measurement": "minimal effective dose", "setting": "[1]; 4 h after administration", "result": 100, "unit": "mg/kg"}, {"measurement": "TD50 (ROT)", "setting": "mice", "result": "381.4 (414.6–350.8) mg"}, {"measurement": "NT (neurotoxicity, ROT), dose at which at least one of three animals showed neurotoxicity", "setting": "mice; 0.5 h after administration", "result": ">300", "unit": "mg/kg"}, {"measurement": "NT (neurotoxicity, ROT), dose at which at least one of three animals showed neurotoxicity", "setting": "mice; 4 h after administration", "result": ">300", "unit": "mg/kg"}]}
